Experimental data as given in ChEMBL document CHEMBL1201862, “PubChem BioAssay data set” (2004).
Active and inactive are the calls of the source.

Tests used:
Assay type in all cases: functional
[1] = target: T1, Caspase-3 (Homo sapiens, UniProt P42574);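 further: Dose-response selectivity test against caspase-3 for candidate inhibitors of sentrin-specific proteases (SENPs)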
T1 sequence (P42574 whole entry): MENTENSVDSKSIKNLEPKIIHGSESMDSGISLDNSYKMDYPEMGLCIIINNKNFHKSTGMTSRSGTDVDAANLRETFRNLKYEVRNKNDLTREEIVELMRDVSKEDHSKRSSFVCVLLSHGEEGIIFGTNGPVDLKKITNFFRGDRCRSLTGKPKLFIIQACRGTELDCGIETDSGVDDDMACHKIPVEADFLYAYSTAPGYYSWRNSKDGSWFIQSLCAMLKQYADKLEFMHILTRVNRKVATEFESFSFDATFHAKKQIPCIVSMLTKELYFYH

[2] = target: T2, Sentrin-specific protease 7 (Homo sapiens, UniProt Q9BQF6);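 further: Luminescence-based dose-response confirmation of ultra-high-throughput screening hits, measuring inhibition of SENP7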
T2 sequence (Q9BQF6 whole entry): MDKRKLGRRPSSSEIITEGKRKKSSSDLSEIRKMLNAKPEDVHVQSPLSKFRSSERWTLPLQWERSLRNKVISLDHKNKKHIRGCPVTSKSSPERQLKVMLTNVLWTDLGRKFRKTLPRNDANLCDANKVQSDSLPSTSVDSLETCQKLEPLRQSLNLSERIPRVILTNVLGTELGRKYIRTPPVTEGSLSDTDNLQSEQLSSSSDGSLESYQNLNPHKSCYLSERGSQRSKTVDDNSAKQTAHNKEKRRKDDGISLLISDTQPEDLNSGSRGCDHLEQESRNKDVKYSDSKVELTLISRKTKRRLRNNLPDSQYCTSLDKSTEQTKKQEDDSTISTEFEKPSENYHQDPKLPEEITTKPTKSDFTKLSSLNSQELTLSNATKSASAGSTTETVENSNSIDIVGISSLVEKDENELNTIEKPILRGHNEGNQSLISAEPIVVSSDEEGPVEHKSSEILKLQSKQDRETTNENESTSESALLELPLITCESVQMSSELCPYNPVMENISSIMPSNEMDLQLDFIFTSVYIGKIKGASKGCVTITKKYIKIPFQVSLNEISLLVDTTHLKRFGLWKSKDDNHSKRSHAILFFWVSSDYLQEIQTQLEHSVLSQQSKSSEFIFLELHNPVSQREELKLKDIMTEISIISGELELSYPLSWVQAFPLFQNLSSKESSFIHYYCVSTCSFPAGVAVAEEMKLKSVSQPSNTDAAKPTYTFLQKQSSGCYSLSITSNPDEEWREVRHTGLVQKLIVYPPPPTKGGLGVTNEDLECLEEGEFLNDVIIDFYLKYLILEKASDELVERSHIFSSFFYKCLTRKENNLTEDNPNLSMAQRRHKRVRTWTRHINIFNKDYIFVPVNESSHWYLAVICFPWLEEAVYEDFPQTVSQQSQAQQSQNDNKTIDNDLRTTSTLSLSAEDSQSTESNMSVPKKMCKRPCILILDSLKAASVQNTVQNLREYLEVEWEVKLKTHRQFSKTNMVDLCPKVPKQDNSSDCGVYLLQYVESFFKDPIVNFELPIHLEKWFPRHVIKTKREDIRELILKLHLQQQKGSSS

[3] = target: T3, Sentrin-specific protease 6 (Homo sapiens, UniProt Q9GZR1);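 further: Luminescence-based dose-response confirmatory assay of SENP6 inhibition, following up an ultra-high-throughput screen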
T3 sequence (Q9GZR1 whole entry): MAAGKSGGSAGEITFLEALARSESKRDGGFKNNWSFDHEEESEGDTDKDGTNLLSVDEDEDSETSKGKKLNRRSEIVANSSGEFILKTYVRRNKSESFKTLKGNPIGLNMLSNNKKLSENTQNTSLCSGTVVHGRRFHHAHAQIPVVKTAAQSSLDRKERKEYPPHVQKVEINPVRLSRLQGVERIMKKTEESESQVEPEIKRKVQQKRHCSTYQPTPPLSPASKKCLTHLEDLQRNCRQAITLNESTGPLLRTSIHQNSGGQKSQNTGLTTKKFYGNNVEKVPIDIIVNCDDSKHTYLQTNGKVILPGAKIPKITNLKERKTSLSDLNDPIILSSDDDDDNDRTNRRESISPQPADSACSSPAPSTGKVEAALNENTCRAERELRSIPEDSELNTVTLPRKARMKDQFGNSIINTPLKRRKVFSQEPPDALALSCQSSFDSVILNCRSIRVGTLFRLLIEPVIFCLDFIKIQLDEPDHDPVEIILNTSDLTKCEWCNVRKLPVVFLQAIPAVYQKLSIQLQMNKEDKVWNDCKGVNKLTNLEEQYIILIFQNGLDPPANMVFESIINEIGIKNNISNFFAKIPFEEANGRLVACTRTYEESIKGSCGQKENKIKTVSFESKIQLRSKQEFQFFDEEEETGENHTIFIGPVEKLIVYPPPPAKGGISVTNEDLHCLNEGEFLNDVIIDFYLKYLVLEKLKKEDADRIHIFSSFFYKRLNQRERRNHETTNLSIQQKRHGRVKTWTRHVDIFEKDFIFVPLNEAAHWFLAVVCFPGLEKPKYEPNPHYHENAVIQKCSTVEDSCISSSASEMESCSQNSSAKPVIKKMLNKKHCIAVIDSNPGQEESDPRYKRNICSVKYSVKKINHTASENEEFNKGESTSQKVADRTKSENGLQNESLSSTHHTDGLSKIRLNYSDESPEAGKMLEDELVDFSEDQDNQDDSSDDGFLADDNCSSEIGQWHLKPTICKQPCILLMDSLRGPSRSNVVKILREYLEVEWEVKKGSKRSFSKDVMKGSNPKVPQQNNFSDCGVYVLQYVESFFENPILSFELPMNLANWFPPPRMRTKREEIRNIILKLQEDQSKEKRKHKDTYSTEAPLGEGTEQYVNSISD

[4] = target: T4, Sentrin-specific protease 8 (Homo sapiens, UniProt Q96LD8);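 further: luminescence read-out of SENP8 inhibition, dose-response confirmation following an ultra-high-throughput screen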
T4 sequence (Q96LD8 whole entry): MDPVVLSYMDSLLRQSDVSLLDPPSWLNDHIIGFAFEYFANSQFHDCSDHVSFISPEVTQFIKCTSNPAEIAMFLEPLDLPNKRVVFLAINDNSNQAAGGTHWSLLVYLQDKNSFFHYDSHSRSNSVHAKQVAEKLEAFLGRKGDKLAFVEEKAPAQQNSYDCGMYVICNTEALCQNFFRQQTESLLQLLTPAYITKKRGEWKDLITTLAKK

[5] = target: T5, High affinity choline transporter 1 (Homo sapiens, UniProt Q9GZV3); experiment: CHT inhibitors, dose response, cell-based, 5-point CRC, membrane potential dye (AID 504840)
T5 sequence (Q9GZV3 whole entry): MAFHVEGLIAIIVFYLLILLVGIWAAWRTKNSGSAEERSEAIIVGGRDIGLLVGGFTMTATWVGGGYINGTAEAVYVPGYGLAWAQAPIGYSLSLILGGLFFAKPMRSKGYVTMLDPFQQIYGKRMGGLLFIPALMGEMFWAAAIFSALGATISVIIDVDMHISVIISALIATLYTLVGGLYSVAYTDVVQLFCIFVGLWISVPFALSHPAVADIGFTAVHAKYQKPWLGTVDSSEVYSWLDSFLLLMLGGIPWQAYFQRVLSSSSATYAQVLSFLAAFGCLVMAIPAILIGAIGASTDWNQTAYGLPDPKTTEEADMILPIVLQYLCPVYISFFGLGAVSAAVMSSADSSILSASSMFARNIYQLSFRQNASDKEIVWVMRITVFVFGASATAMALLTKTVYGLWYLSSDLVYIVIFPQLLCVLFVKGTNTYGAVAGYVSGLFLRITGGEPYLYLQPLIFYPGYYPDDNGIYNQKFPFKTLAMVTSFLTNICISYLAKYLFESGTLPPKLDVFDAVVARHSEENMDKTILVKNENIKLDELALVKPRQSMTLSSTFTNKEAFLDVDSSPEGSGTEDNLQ

[6] = target: T5, High affinity choline transporter 1; experiment: CHT inhibitors, dose response, cell-based, 10-point CRC, membrane potential dye (AID 588401);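 further: membrane potential dye fluorescence of choline-evoked depolarization via CHT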
[7] = tested on: CHO-K1; experiment: (§1) Counterscreen for antagonists of the orexin 1 receptor (OX1R; HCRTR1): Homogeneous time resolved fluorescence (HTRF)-based cell-based dose response assay to identify antagonists of the parental CHO-K1 cell line. [Related pubchem assays (depositor defined):AID434989, AID435008, AID463079, AID485270, AID492963, AID492964, AID492965, AID493232, AID504699, AID504701]; settings: Cricetulus griseus
[8] = Luminescence Cell-Based Dose Retest to Confirm Inhibitors of Cancer Stem Cells. [Related pubchem assays (depositor defined):AID2717, AID2721]; settings: Homo sapiens
[9] = target: T6, Ubiquitin-conjugating enzyme E2 N (Homo sapiens, UniProt P61088);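 further: Dose-response confirmation in a TR-FRET assay detecting UBC13-driven polyubiquitin chain formation, inhibition measured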
T6 sequence (P61088 whole entry): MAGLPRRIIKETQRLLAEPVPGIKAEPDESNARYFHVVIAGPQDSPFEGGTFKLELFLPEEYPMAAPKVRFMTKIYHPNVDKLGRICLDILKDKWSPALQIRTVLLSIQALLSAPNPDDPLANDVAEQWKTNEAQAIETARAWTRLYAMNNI

[10] = as §1, with “Fluorescence-based” for “Homogeneous time resolved fluorescence (HTRF)-based”, “cell-based high throughput” for “cell-based”, “CHO” for “CHO-K1”
[11] = target: T7, Orexin/Hypocretin receptor type 1 (Homo sapiens, UniProt O43613); experiment: Homogeneous Time Resolved Fluorescence (HTRF)-based cell-based high throughput dose response assay for antagonists of the orexin 1 receptor (OX1R; HCRTR1). [Related pubchem assays (depositor defined):AID434989, AID435008, AID463079, AID485270, AID492963, AID492964, AID492965, AID493232, AID504717, AID504718]
T7 sequence (O43613 whole entry): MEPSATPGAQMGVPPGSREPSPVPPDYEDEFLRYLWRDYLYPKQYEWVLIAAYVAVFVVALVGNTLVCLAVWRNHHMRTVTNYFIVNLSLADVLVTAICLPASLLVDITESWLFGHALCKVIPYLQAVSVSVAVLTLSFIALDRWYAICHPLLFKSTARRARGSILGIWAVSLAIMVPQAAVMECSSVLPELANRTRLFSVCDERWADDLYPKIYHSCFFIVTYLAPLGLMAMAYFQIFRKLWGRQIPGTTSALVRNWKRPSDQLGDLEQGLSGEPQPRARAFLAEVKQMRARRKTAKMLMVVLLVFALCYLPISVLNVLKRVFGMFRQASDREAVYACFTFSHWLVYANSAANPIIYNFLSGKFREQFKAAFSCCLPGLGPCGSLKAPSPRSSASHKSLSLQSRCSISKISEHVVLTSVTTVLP

[12] = target: T7, Orexin/Hypocretin receptor type 1; experiment: Fluorescence-based cell-based high throughput dose response assay for antagonists of the orexin 1 receptor (OX1R; HCRTR1). [Related pubchem assays (depositor defined):AID434989, AID435008, AID463079, AID485270, AID492963, AID492964, AID492965, AID493232, AID504717, AID504718]
[13] = target: Multidrug resistance protein CDR1 (Candida albicans, UniProt P43071); experiment: CaCdr1 efflux pump inhibitor potency, dose response, singleplex, Cherry Pick2 set (AID 623996); settings: read-out: EC50_MICROM
[14] = target: Multidrug resistance protein CDR2 (Candida albicans (strain SC5314 / ATCC MYA-2876) (Yeast), UniProt P78595); experiment: CaCDR2 efflux pump inhibitors in yeast, dose response, S. cerevisiae AD1-8u, singleplex, Cherry Pick2 set (AID 623994); settings: read-out: EC50_MICROM
[15] = target: Benomyl/methotrexate resistance protein (Candida albicans, UniProt P28873); experiment: CaMdr1 efflux pump inhibitor potency, dose response, singleplex, Cherry Pick2 set (AID 623992); settings: read-out: EC50_MICROM
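Wherever AC50 is given: cells exposed to compound for roughly 70 hours or longer before luminescence read.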

Sequence of Benomyl/methotrexate resistance protein (P28873 whole entry): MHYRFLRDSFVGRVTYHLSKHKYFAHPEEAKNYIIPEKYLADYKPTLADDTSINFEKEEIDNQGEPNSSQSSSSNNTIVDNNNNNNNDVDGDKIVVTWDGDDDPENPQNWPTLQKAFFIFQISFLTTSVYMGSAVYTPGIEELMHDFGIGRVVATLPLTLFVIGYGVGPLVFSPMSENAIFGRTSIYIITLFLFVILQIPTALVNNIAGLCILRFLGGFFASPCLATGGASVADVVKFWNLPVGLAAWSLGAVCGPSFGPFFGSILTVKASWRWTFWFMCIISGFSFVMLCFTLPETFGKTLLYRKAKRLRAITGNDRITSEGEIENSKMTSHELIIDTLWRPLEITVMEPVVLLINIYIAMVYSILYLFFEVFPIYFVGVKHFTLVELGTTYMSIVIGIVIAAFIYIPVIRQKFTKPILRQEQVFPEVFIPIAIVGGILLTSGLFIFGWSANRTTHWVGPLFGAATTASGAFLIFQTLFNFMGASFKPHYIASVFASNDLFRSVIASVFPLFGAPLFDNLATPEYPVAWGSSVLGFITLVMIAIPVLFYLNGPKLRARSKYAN
Sequence of Multidrug resistance protein CDR1 (P43071 whole entry, looked up): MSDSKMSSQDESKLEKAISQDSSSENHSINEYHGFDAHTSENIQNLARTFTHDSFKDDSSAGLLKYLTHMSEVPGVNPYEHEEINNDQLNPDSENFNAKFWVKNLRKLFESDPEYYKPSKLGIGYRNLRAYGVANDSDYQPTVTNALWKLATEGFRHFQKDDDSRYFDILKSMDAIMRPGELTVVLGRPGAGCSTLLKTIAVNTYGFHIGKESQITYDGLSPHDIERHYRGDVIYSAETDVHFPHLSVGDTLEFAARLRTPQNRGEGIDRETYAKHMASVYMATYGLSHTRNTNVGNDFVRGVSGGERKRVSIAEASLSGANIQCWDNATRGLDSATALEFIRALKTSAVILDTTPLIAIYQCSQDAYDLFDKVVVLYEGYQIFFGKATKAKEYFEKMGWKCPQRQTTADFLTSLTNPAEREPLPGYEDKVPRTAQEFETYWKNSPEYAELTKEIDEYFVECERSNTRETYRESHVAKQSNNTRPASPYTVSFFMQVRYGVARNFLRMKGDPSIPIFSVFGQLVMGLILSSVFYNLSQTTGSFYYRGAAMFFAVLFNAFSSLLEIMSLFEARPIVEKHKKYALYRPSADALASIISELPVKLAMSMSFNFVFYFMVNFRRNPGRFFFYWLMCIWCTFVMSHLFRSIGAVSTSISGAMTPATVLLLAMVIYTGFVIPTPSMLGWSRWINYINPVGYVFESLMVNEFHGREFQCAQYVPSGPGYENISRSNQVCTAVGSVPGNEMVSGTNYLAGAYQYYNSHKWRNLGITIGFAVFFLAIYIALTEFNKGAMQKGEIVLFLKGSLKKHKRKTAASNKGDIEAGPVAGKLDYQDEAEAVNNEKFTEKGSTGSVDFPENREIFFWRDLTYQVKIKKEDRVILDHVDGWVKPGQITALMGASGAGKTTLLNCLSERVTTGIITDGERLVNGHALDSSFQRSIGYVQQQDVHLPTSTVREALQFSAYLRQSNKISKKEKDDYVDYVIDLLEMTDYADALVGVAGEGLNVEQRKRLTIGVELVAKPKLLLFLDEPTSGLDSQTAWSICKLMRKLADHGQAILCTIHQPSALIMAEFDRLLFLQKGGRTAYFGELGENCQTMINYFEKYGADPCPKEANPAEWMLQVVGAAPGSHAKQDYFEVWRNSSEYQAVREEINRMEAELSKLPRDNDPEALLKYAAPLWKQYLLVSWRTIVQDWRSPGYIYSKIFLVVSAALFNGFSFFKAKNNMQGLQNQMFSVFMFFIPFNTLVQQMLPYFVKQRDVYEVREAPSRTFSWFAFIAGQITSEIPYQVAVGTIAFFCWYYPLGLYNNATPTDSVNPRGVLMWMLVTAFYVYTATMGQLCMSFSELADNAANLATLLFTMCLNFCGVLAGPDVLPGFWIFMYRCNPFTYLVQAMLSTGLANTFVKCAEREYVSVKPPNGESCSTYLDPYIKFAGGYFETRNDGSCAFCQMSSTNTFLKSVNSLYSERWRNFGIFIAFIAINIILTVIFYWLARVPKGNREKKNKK
Sequence of Multidrug resistance protein CDR2 (P78595 whole entry): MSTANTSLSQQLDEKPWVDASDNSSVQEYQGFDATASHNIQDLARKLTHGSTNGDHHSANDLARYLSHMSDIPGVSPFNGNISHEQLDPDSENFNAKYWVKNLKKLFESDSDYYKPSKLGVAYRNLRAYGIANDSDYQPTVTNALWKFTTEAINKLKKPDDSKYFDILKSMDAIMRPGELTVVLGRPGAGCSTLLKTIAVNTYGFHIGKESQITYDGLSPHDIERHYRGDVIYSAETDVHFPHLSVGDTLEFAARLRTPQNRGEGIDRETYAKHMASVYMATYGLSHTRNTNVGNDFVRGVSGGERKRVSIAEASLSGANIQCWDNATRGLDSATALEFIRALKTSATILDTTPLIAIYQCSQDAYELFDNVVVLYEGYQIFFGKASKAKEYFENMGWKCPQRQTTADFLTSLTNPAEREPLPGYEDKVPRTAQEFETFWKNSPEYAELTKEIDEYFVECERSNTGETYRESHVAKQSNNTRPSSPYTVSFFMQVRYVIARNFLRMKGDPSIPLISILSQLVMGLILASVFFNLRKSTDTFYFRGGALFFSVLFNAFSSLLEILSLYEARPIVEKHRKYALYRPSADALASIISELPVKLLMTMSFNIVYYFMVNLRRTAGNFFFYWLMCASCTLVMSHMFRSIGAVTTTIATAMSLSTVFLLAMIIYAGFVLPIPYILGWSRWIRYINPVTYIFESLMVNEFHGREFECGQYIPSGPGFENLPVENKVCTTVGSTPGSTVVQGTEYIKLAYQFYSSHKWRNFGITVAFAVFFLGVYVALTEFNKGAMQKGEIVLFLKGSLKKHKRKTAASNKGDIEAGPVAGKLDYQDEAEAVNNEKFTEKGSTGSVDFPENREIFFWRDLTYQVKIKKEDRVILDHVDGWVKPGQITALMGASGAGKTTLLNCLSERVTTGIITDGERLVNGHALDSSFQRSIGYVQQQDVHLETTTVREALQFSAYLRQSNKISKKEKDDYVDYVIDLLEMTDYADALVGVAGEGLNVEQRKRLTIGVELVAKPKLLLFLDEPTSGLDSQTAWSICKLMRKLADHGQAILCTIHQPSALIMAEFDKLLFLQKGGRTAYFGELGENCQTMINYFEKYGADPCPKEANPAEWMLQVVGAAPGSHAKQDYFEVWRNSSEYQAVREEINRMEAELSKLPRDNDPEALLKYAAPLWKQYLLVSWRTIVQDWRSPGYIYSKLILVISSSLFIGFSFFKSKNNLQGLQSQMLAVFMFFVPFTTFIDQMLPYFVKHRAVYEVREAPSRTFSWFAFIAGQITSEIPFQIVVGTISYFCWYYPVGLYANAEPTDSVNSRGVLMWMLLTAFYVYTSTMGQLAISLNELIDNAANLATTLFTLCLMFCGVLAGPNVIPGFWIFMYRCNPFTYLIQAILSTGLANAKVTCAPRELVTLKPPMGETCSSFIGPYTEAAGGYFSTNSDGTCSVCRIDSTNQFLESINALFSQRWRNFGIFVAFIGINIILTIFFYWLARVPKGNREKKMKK

| IC50 [1] | IC50 [2] | IC50 [3] | IC50 [5] | IC50 [6] | SMILES | IC50 [4] | IC50 [7] | AC50 [8] | IC50 [9] | IC50 [10] | IC50 [11] | IC50 [12] | EC50 [13] | EC50 [14] | EC50 [15] |
| --- | --- | --- | --- | --- | --- | --- | --- | --- | --- | --- | --- | --- | --- | --- | --- |
| 8.4 µM (active) | 4.57 µM (active) | 10.8 µM (active) | 3.99 µM (active) | 3.4 µM (active) | Cn1c(SCc2ccc(C#N)cc2Cl)nc2ccccc21 | 14.8 µM (active) |  |  |  |  |  |  |  |  |  |
|  |  |  |  |  | COc1cccc(-c2sc3ccc(OC)cc3c2-c2ccc(OCCN(C)C)cc2)c1 |  | > 66.2 µM (inactive) | 3.37 µM (active) | > 20 µM (inactive) | 17.5 µM (inactive) | > 66.2 µM (inactive) | 15.8 µM (inactive) | 26.8 µM (active) | 15.2 µM (active) | 32.1 µM (active) |
